Results from PubChem BioAssay AID652246 (Sanford-Burnham Center for Chemical Genomics, 2013).
Calls of active or inactive are those of the source. How the calls were made is not given here.

Each molecule was assayed on HT1080 viability, ATPLite luminescence, overnight (assay: HT1080 parental cell cytotoxicity, dose response, cytotoxicity control for MT1-MMP activation inhibitor project, ATPLite luminescence, set 2 (AID 652246)).

SMILES	IC50
Nc1nc(-c2ccccc2)c(N=Nc2ccccc2Cl)s1	> 80 µM (inactive)
O=c1cc2oc3cc(O)c(O)cc3c(-c3ccccc3[N+](=O)[O-])c-2cc1O	> 80 µM (inactive)
COc1ccc2nc(-n3c(O)c(C4=c5ccccc5=NC4=O)[nH]c3=S)sc2c1	> 80 µM (inactive)
CCN1C(=O)/C(=C2\C=Cc3ccccc3N2CC)SC1=S	> 80 µM (inactive)
Cn1cccc1/C=C1/C(=O)NC(=S)N(Cc2ccc(F)cc2)C1=O	> 80 µM (inactive)
O=S(=O)(O)c1cc(O)c(N=Nc2ccc(O)cc2O)c2ccccc12	30.5 µM (inactive)
Oc1ccc(N=Nc2c(O)ccc3ccccc23)cc1	54.8 µM (inactive)
C[n+]1c2ccccc2nc2ccc(NCCO)cc21	> 80 µM (inactive)
Cc1ccc(C(=O)NNc2c3ccccc3nc3ccccc23)cc1	> 80 µM (inactive)
O=c1ccc2c(-c3ccccc3S(=O)(=O)O)c3ccc(O)c(O)c3oc-2c1O	> 80 µM (inactive)
COc1ccc(OCC(=O)NNc2c3ccccc3nc3ccccc23)cc1	> 80 µM (inactive)
O=C(NNc1c2ccccc2nc2ccccc12)c1ccccc1O	> 80 µM (inactive)
COc1ccccc1N=Nc1nc(-c2ccccc2)c(-c2ccccc2)[nH]1	> 80 µM (inactive)
CN(CCCC(=O)O)c1ccc(N=Nc2ccc([N+](=O)[O-])cc2)cc1	15.8 µM
CN1/C(=C\C(=O)c2cncc(Br)c2)C(C)(C)c2ccccc21	30.2 µM (inactive)
CN(C)/C=C/c1oc2ccc(O)cc2c1[N+](=O)[O-]	> 80 µM (inactive)
Cc1c(C(=O)O)c(O)cc2c1C(=O)c1c(O)c([C@@H]3O[C@H](CO)[C@@H](O)[C@H](O)[C@H]3O)c(O)c(O)c1C2=O	> 80 µM (inactive)
COc1cc(-c2cc(=O)c3c(O)c(OC)c(OC)cc3o2)cc(OC)c1O	> 80 µM (inactive)
CC[n+]1c(/C=C/Nc2ccccc2)sc2ccccc21	> 80 µM (inactive)
CN1/C(=C/C=C/c2n(C)c3cc([N+](=O)[O-])c([N+](=O)[O-])cc3[n+]2C)C(C)(C)c2ccccc21	39.5 µM (inactive)
CN1/C(=C\C=N\NC(=O)c2ccc(O)cc2)C(C)(C)c2ccccc21	> 80 µM (inactive)
